Experimental data reported in patent US8987286B2, “Substituted pyrimido[1,2-b]indazoles and their use as modulators of the Pi3K/Akt pathway” (Bayer Intellectual Property GmbH, priority 2010, dated 2015).

Molecular target: Akt1 (Homo sapiens (Human), UniProt P31749)
Test: Akt1 kinase assay (Akt1 TR-FRET assay)
Format: biochemical
Conditions: His-tagged human recombinant full-length Akt1, 10 μM ATP, 1 μM peptide substrate
Text: Biological Assay 1.0: Akt1 Kinase Assay
Akt1 inhibitory activity of compounds of the present invention was quantified employing the Akt1 TR-FRET assay as described in the following paragraphs.
His-tagged human recombinant kinase full-length Akt1 expressed in insect cells was purchased form Invitrogen (part number PV 3599). As substrate for the kinase reaction the biotinylated peptide biotin-Ahx-KKLNRTLSFAEPG (C-terminus in amide form) was used which can be purchased e.g. from the company Biosynthan GmbH (Berlin-Buch, Germany).
For the assay 50 nl of a 100 fold concentrated solution of the test compound in DMSO was pipetted into a black low volume 384 well microtiter plate (Greiner Bio-One, Frickenhausen, Germany), 2 μl of a solution of Akt1 in assay buffer [50 mM TRIS/HCl pH 7.5, 5 mM MgCl2, 1 mM dithiothreitol, 0.02% (v/v) Triton X-100 (Sigma)] were added and the mixture was incubated for 15 min at 22° C. to allow pre-binding of the test compounds to the enzyme before the start of the kinase reaction. Then the kinase reaction was started by the addition of 3 μl of a solution of adenosine-tri-phosphate (ATP, 16.7 μM=>final conc. in the 5 μl assay volume is 10 μM) and substrate (1.67 μM=>final conc. in the 5 μl assay volume is 1 μM) in assay buffer and the resulting mixture was incubated for a reaction time of 60 min at 22° C. The concentration of Akt1 in the assay was adjusted depending of the activity of the enzyme lot and was chosen appropriate to have the assay in the linear range, typical enzyme concentrations were in the range of about 0.05 ng/μl (final conc. in the 5 μl assay volume).
The reaction was stopped by the addition of 5 μl of a solution of HTRF detection reagents (200 nM streptavidine-XL665 [Cisbio] and 1.5 nM anti-phosho-Serine antibody [Millipore, cat. #35-001] and 0.75 nM LANCE Eu-W 1024 labeled anti-mouse IgG antibody [Perkin Elmer]) in an aqueous EDTA-solution (100 mM EDTA, 0.1% (w/v) bovine serum albumin in 50 mM HEPES/NaOH pH 7.5).
The resulting mixture was incubated 1 h at 22° C. to allow the binding of the biotinylated phosphorylated peptide to the streptavidine-XL665 and the antibodies. Subsequently the amount of phosphorylated substrate was evaluated by measurement of the resonance energy transfer from the anti-mouse-IgG-Eu-Chelate to the streptavidine-XL665. Therefore, the fluorescence emissions at 620 nm and 665 nm after excitation at 350 nm was measured in a HTRF reader, e.g. a Rubystar (BMG Labtechnologies, Offenburg, Germany) or a Viewlux (Perkin-Elmer). The ratio of the emissions at 665 nm and at […] was taken as the measure for the amount of phosphorylated substrate. The data were normalised (enzyme reaction without inhibitor=0% inhibition, all other assay components but no enzyme=100% inhibition).

Akt1, sequence (P31749 whole entry): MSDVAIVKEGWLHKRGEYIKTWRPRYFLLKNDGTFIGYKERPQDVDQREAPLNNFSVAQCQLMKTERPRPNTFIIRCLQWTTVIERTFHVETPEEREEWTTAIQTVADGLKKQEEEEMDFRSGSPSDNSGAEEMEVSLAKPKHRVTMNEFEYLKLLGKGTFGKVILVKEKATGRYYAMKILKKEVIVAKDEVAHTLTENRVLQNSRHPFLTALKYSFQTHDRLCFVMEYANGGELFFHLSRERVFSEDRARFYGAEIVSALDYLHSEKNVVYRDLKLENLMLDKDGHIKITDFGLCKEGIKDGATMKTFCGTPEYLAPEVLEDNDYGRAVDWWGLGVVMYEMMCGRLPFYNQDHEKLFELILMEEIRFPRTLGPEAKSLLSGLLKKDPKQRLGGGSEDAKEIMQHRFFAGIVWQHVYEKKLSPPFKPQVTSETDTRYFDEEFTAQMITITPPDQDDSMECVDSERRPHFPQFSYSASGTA

Work on `NC(=O)c1ccc(-c2ccc3c(c2)nn2cc(-c4ccccc4)c(-c4ccc(C5(N)CCC5)cc4)nc32)cc1` [Example 4.10, 4-{2-[4-(1-Aminocyclobutyl)phenyl]-3-phenylpyrimido[1,2-b]indazol-8-yl}benzamide] yielded an IC50 of 21 nM.
With `Cc1cc(-c2ccc3c(c2)nn2cc(-c4ccccc4)c(-c4ccc(C5(N)CCC5)cc4)nc32)[nH]n1` [Example 15.1, 1-{4-[8-(3-Methyl-1H-pyrazol-5-yl)-3-phenylpyrimido[1,2-b]indazol-2-yl]phenyl}cyclobutylamine] the IC50 was 10 nM.
With `COc1cc(-c2ccc3c(c2)nn2cc(-c4ccccc4)c(-c4ccc(C5(N)CCC5)cc4)nc32)ccc1F` [Example 4.6, 1-{4-[8-(4-Fluoro-3-methoxyphenyl)-3-phenylpyrimido[1,2-b]indazol-2-yl]phenyl}cyclobutylamine] the IC50 was 458 nM.
In the case of `NC1(c2ccc(-c3nc4c5cc(-c6ccc(S(N)(=O)=O)cc6)ccc5nn4cc3-c3ccccc3)cc2)CCC1` [Example 6.5, 4-{2-[4-(1-Aminocyclobutyl)phenyl]-3-phenylpyrimido[1,2-b]indazol-9-yl}benzenesulfonamide formiate], the IC50 is reported as 31 nM.
In the case of `NC(=O)/C=C/c1ccc2nn3cc(-c4ccccc4)c(-c4ccc(C5(N)CCC5)cc4)nc3c2c1` [Example 15.5, (E)-3-{2-[4-(1-Aminocyclobutyl)phenyl]-3-phenylpyrimido[1,2-b]indazol-9-yl}acrylamide], the IC50 is reported as 30 nM.
With `NC1(c2ccc(-c3nc4c5cccc(-c6ccc(F)cc6)c5nn4cc3-c3ccccc3)cc2)CCC1` [Example 8.2, 1-{4-[7-(4-Fluorophenyl)-3-phenylpyrimido[1,2-b]indazol-2-yl]-phenyl}cyclobutylamine] the IC50 was 5600 nM.
Compound `NC1(c2ccc(-c3nc4c5ccc(-c6cn[nH]c6)cc5nn4cc3-c3ccccc3)cc2)CCC1` [Example 4.11, 1-{4-[3-Phenyl-8-(1H-pyrazol-4-yl)pyrimido[1,2-b]indazol-2-yl]-phenyl}cyclobutylamine] has an IC50 of 17 nM.
For `COC(=O)c1ccc(-c2ccc3c(c2)nn2cc(-c4ccccc4)c(-c4ccc(C5(N)CCC5)cc4)nc32)cn1` [Example 4.13, 5-{2-[4-(1-Aminocyclobutyl)phenyl]-3-phenylpyrimido[1,2-b]indazol-8-yl}pyridine-2-carboxylic acid methyl ester], the IC50 was 23 nM.
In the case of `CNc1c(-c2ccccc2)c(-c2ccc(C3(N)CCC3)cc2)nc2c3cc(F)ccc3nn12` [Example 3, 2-[4-(1-Aminocyclobutyl)phenyl]-9-fluoro-N-methyl-3-phenylpyrimido[1,2-b]indazol-4-amine], the IC50 is reported as 2630 nM.
